According to US4156000A, “Cyclopenta[b]thiophene derivatives” (Hexachimie, priority 1976, dated 1979):
Where a name gives a salt, the structure may show the parent alone.

Key:
[1] = tested on: pain reactions (abdominal contortions); experiment: Analgesic activity: phenylbenzoquinone-induced pain reactions, oral administration; type: in vivo, mice (male, SPF1, strain OF1); settings: Mus musculus; for inhibition in vivo at 64 mg/kg: 64 mg/kg oral administration; for inhibition in vivo at 256 mg/kg: 256 mg/kg oral administration; for inhibition in vivo at 8 mg/kg: 8 mg/kg oral administration; for inhibition in vivo at 16 mg/kg: 16 mg/kg oral administration; for inhibition in vivo at 32 mg/kg: 32 mg/kg oral administration; for inhibition in vivo at 4 mg/kg: 4 mg/kg oral administration
Description: Batches of 6 male mice (SPF1, strain OF1), weighing 19-20 g each are given the product to be tested, by oral administration. One hour afterwards, each mouse is injected intraperitoneally with 0.3 cm^3 of an 0.02% strength phenylbenzoquinone solution and from the 5th to the 10th minute after this latter treatment, the number of pain reactions (abdominal contortions) is counted. The table which follows gives the percentage inhibition of these reactions.

[2] = tested on: rear paw which has received the carrageenin; experiment: Anti-inflammatory activity: carrageenin-induced rear paw swelling, oral administration; type: in vivo, rats (male SPF, strain OFA); settings: for inhibition in vivo at 4 mg/kg / inhibition in vivo at 16 mg/kg / inhibition in vivo at 64 mg/kg / inhibition in vivo at 128 mg/kg / inhibition in vivo at 256 mg/kg: Rattus norvegicus, read-out: % of inhibition (reduction of swelling); for inhibition in vivo at 4 mg/kg: 4 mg/kg oral administration; for inhibition in vivo at 16 mg/kg: 16 mg/kg oral administration; for inhibition in vivo at 128 mg/kg: 128 mg/kg oral administration; for inhibition in vivo at 256 mg/kg: 256 mg/kg oral administration
Description: Batches of 12 male SPF rats, strain OFA, weighing 120-130 g each, are given the product to be tested by oral administration 2 hours before and 30 minutes before (1/2 dose each time) subcutaneous plantar injection of 0.05 cm^3 of a 1% solution of carrageenin. The volume of the rear paw which has received the carrageenin is measured at regular intervals.

`CC(C)C1Cc2cc(CC(=O)OCCN3CCOCC3)sc2C1` (stereo not shown) [Example 39, Hydrochloride of the morpholinoethyl ester of (5-isopropyl-4,5-dihydro-6H-cyclopenta[b]thienyl-2)-acetic acid] showed an inhibition in vivo at 64 mg/kg [1] of 12%, an inhibition in vivo at 256 mg/kg [1] of 53% and an inhibition in vivo at 4 mg/kg [2] of 7%. The inhibition in vivo at 16 mg/kg [2] was 23%, the inhibition in vivo at 64 mg/kg ([2]; 64 mg/kg oral administration) was 20% and the inhibition in vivo at 128 mg/kg [2] was 53%. It also gave an inhibition in vivo at 256 mg/kg [2] of 56%.

Work on `CC(C(=O)OCCN1CCOCC1)c1cc2c(s1)CC(C(C)C)C2` (stereo not drawn) [Example 36, Hydrochloride of the morpholinoethyl ester of α-methyl-(5-isopropyl-4,5-dihydro-6H-cyclopenta[b]thienyl-2)-acetic acid] yielded an inhibition in vivo at 8 mg/kg [1] of 23%, an inhibition in vivo at 16 mg/kg [1] of 80% and an inhibition in vivo at 32 mg/kg [1] of 84%. The inhibition in vivo at 4 mg/kg [2] was 29%, the inhibition in vivo at 16 mg/kg [2] was 30% and the inhibition in vivo at 64 mg/kg ([2]; 64 mg/kg oral administration) was 62%. For the same compound, the inhibition in vivo at 128 mg/kg [2] was 56% and the inhibition in vivo at 256 mg/kg [2] was 66%.

For `CC(C(=O)OCCN(C)C)c1cc2c(s1)CC(C(C)C)C2` (stereo not shown) [Example 37], the inhibition in vivo at 4 mg/kg [1] was 10%, the inhibition in vivo at 8 mg/kg [1] was 53% and the inhibition in vivo at 16 mg/kg [1] was 42%. For the same compound, the inhibition in vivo at 32 mg/kg [1] was 80%, the “% of inhibition (reduction of swelling)” value ([2]; 64 mg/kg oral administration) was 45Z and the inhibition in vivo at 4 mg/kg [2] was 5%. The inhibition in vivo at 16 mg/kg [2] was 35%, the inhibition in vivo at 128 mg/kg [2] was 63% and the inhibition in vivo at 256 mg/kg [2] was 58%.

`CCC1Cc2cc(C(C)C(=O)O)sc2C1` (stereo not shown) [23 & 27] gave an inhibition in vivo at 8 mg/kg [1] of 7%, an inhibition in vivo at 16 mg/kg [1] of 35% and an inhibition in vivo at 32 mg/kg [1] of 79%. It also gave an inhibition in vivo at 64 mg/kg [1] of 98%, an inhibition in vivo at 16 mg/kg [2] of 30% and an inhibition in vivo at 64 mg/kg ([2]; 64 mg/kg oral administration) of 67%. The inhibition in vivo at 128 mg/kg [2] was 66% and the inhibition in vivo at 256 mg/kg [2] was 56%.

Compound `CCC1Cc2cc(C(C)C(=O)OCCN3CCOCC3)sc2C1` (stereo not drawn) [Example 30, Hydrochloride of the morpholinoethyl ester of α-methyl(5-ethyl-4,5-dihydro-6H-cyclopenta[b]thienyl-2)-acetic acid] has an inhibition in vivo at 8 mg/kg [1] of 9%, an inhibition in vivo at 16 mg/kg [1] of 6% and an inhibition in vivo at 32 mg/kg [1] of 85%. It also gave an inhibition in vivo at 64 mg/kg [1] of 93%, an inhibition in vivo at 4 mg/kg [2] of 18% and an inhibition in vivo at 16 mg/kg [2] of 38%. For the same compound, the inhibition in vivo at 64 mg/kg ([2]; 64 mg/kg oral administration) was 53%, the inhibition in vivo at 128 mg/kg [2] was 67% and the inhibition in vivo at 256 mg/kg [2] was 79%.

`CC(C)C1Cc2cc(CC(=O)O)sc2C1` (stereo not shown) [Example 18, (5-Isopropyl-4,5-dihydro-6H-cyclopenta[b]thienyl-2)-acetic acid] showed an inhibition in vivo at 16 mg/kg [1] of 4%, an inhibition in vivo at 32 mg/kg [1] of 27% and an inhibition in vivo at 64 mg/kg [1] of 61%. The inhibition in vivo at 4 mg/kg [2] was 0%, the inhibition in vivo at 16 mg/kg [2] was 0% and the inhibition in vivo at 64 mg/kg ([2]; 64 mg/kg oral administration) was 31%. For the same compound, the inhibition in vivo at 128 mg/kg [2] was 47% and the inhibition in vivo at 256 mg/kg [2] was 57%.

Compound `CC(C(=O)O)c1cc2c(s1)CC(C(C)C)C2` (stereo not shown) [24 & 28] has an inhibition in vivo at 4 mg/kg [1] of 0%, an inhibition in vivo at 8 mg/kg [1] of 35% and an inhibition in vivo at 16 mg/kg [1] of 66%. It also gave an inhibition in vivo at 32 mg/kg [1] of 89%, an inhibition in vivo at 64 mg/kg [1] of 96% and an inhibition in vivo at 4 mg/kg [2] of 0%. The inhibition in vivo at 16 mg/kg [2] was 32%, the inhibition in vivo at 64 mg/kg ([2]; 64 mg/kg oral administration) was 63% and the inhibition in vivo at 128 mg/kg [2] was 59%. It also gave an inhibition in vivo at 256 mg/kg [2] of 46%.

With `CCC1Cc2cc(CC(=O)O)sc2C1` (stereo not shown) [Example 17, (5-Ethyl-4,5-dihydro-6H-cyclopenta[b]thienyl-2)-acetic acid] the inhibition in vivo at 16 mg/kg [1] was 17%, the inhibition in vivo at 32 mg/kg [1] was 58% and the inhibition in vivo at 64 mg/kg [1] was 63%. The inhibition in vivo at 4 mg/kg [2] was 17%, the inhibition in vivo at 16 mg/kg [2] was 24% and the inhibition in vivo at 64 mg/kg ([2]; 64 mg/kg oral administration) was 55%. It also gave an inhibition in vivo at 128 mg/kg [2] of 52% and an inhibition in vivo at 256 mg/kg [2] of 66%.

`CCC1Cc2cc(C(C)C(=O)OCCN(C)C)sc2C1` (stereo not drawn) [Example 34, Hydrochloride of the dimethylaminoethyl ester of α-methyl-(5-ethyl-4,5-dihydro-6H-cyclopenta[b]thienyl-2)-acetic acid] was tested, and the inhibition in vivo at 4 mg/kg [1] was 21%, the inhibition in vivo at 8 mg/kg [1] was 46% and the inhibition in vivo at 16 mg/kg [1] was 74%. For the same compound, the inhibition in vivo at 32 mg/kg [1] was 95%, the inhibition in vivo at 4 mg/kg [2] was 3% and the inhibition in vivo at 16 mg/kg [2] was 12%. It also gave an inhibition in vivo at 64 mg/kg ([2]; 64 mg/kg oral administration) of 45%, an inhibition in vivo at 128 mg/kg [2] of 64% and an inhibition in vivo at 256 mg/kg [2] of 82%.

In the case of `CCC1Cc2cc(CC(=O)OCCN3CCOCC3)sc2C1` (stereo not shown) [Example 32, Hydrochloride of the morpholinoethyl ester of (5-ethyl-4.5-dihydro-6H-cyclopenta[b]thienyl-2)-acetic acid], the inhibition in vivo at 16 mg/kg [1] was 25%, the inhibition in vivo at 32 mg/kg [1] was 48% and the inhibition in vivo at 64 mg/kg [1] was 53%. The inhibition in vivo at 4 mg/kg [2] was 0%, the inhibition in vivo at 16 mg/kg [2] was 16% and the inhibition in vivo at 64 mg/kg ([2]; 64 mg/kg oral administration) was 20%. It also gave an inhibition in vivo at 128 mg/kg [2] of 51% and an inhibition in vivo at 256 mg/kg [2] of 53%.

`CC(C)C1Cc2cc(CC(=O)OCCN(C)C)sc2C1` (stereo not shown) [Example 40, Hydrochloride of the dimethylaminoethyl ester of (5-isopropyl-4,5-dihydro-6H-cyclopenta[b]thienyl-2)-acetic acid] gave an inhibition in vivo at 16 mg/kg [1] of 0%, an inhibition in vivo at 64 mg/kg [1] of 31% and an inhibition in vivo at 256 mg/kg [1] of 88%. It also gave an inhibition in vivo at 4 mg/kg [2] of 8%, an inhibition in vivo at 16 mg/kg [2] of 7% and an inhibition in vivo at 64 mg/kg ([2]; 64 mg/kg oral administration) of 13%. It also gave an inhibition in vivo at 128 mg/kg [2] of 22% and an inhibition in vivo at 256 mg/kg [2] of 32%.

In the case of `CCC1Cc2cc(CC(=O)OCCN(C)C)sc2C1` (stereo not shown) [Example 33, Hydrochloride of the dimethylaminoethyl ester of (5-ethyl-4,5-dihydro-6H-cyclopenta[b]thienyl-2)-acetic acid], the inhibition in vivo at 16 mg/kg [1] was 37%, the inhibition in vivo at 64 mg/kg [1] was 17% and the inhibition in vivo at 256 mg/kg [1] was 95%. It also gave an inhibition in vivo at 4 mg/kg [2] of 2%, an inhibition in vivo at 16 mg/kg [2] of 17% and an inhibition in vivo at 64 mg/kg ([2]; 64 mg/kg oral administration) of 55%. For the same compound, the inhibition in vivo at 128 mg/kg [2] was 54% and the inhibition in vivo at 256 mg/kg [2] was 52%.
